What was measured:
Type in all cases: cell-based
[1] = test system: LN229 GFP-LC3 cells; assay: Fluorescence microscopy of GFP-LC3 puncta (autophagosome accumulation); conditions: increasing doses; 48 hours of treatment; FIG. 2
Protocol: Punctate flouresence indicates the accumulation of LC3-positive autophagosomes.
Fluorescence Microscopy: Cells were grown in sterile glass coverslips and treated in full medium as indicated above. After 48 hours of treatment cells were fixed with 4% paraformaldehyde and imaged using a Nikon upright fluorescent microscope. Images were captured at 100× and representative images were reported.

[2] = test system: LN229 cells expressing GFP-LC3; assay: Cell counting of LN229 GFP-LC3 cells (Coulter Z2 particle analyzer, confirmed by trypan blue exclusion); conditions: 5 nM rapamycin and/or 5 μM chloroquine, FIG. 1
Protocol: Cell lines, transfection, and cell counting: LN229 cells were grown in DMEM supplemented with 10% heat-inactivated fetal bovine serum (Gemini Biosciences, Woodland, Calif.), 10 units/ml penicillin/streptomycin, and 2 mM L-glutamine (Invitrogen Corporation). LN229 cells were transfected with lipofectamine 2000 (Invitrogen) according to manufacturer protocol. Stable transfectants were selected with neomycin (Gibco), and high fluorescence clones of LN229 GFP-LC3 were selected by limiting dilution. For all in vitro experiments media+supplements and drugs treatments were changed daily. Cell number was assessed by using a Coulter Z2 particle analyzer and confirmed by trypan blue exclusion.

[3] = test system: LN229 GFP-LC3 cells; assay: Electron microscopy of autophagic vesicles; conditions: FIG. 3
Source text: Cells were postfixed with 2% osmium tetroxide followed by an increasing gradient dehydration step using ethanol and propylene oxide.

| SMILES | accumulation of LC3-positive autophagosomes (punctate fluorescence) [1] | cell number [2] | autophagosomes in electron micrographs [3] |
| --- | --- | --- | --- |
| CCN(CC)CCCC(C)Nc1ccnc2cc(Cl)ccc12 (centres unmarked) [chloroquine] | accumulated LC3-positive autophagosomes | decrease in cell number | – |
| CO[C@H]1C[C@@H]2CC[C@@H](C)[C@@](O)(O2)C(=O)C(=O)N2CCCC[C@H]2C(=O)O[C@H]([C@H](C)C[C@@H]2CC[C@@H](O)[C@H](OC)C2)CC(=O)[C@H](C)/C=C(\C)[C@@H](O)[C@@H](OC)C(=O)[C@H](C)C[C@H](C)/C=C/C=C/C=C/1C [rapamycin] | accumulated LC3-positive autophagosomes | decrease in cell number | autophagosomes are observed |

Reference: patent US8716307B2, “Combination antineoplastic therapy” (The Trustees Of The University of Pennsylvania, priority 2009, dated 2014)
